pIC50: −log10 of the molar value.
Target: Protein farnesyltransferase (Homo sapiens, UniProt P49354+P49356)
Experiment: Inhibition of ras Farnesyltransferase
Assay type: protein-complex assay

Row | Compound | pIC50
1 | CCOC(=O)C(C/C=C(\C)CC/C=C(\C)CCC=C(C)C)CCC(=O)N[C@H](C(=O)N[C@@H](CC(C)C)C(=O)N[C@@H](CO)C(=O)O)C(C)C (some centres undefined) | < 3.44
2 | CC(C)=CCC/C(C)=C/CC/C(C)=C/CC(CC(=O)N[C@H](C(=O)N[C@@H](CC(C)C)C(=O)N[C@@H](CO)C(=O)O)C(C)C)C(=O)O (some centres undefined) | 5.35
3 | CC(C)=CCC/C(C)=C/CC/C(C)=C/CC(C[C@H](NC(=O)OC(C)(C)C)C(=O)N[C@H](C(=O)N[C@@H](CC(C)C)C(=O)N[C@@H](CO)C(=O)O)C(C)C)C(=O)O (some centres undefined) | 4.70
4 | CC(C)=CCC/C(C)=C/CC/C(C)=C/CC(CCC(=O)N[C@H](C(=O)N[C@@H](CC(C)C)C(=O)N[C@@H](CO)C(=O)O)C(C)C)C(=O)NCP(=O)(O)O (some centres undefined) | 6.82
5 | CCCCCCCCCCCCC(CCC(=O)N[C@H](C(=O)N[C@@H](CC(C)C)C(=O)N[C@@H](CO)C(=O)O)C(C)C)C(=O)O (some centres undefined) | 5.00
6 | CC(C)=CCC/C(C)=C/CC/C(C)=C/CNC(=O)C(CCC(=O)N[C@H](C(=O)N[C@@H](CC(C)C)C(=O)N[C@@H](CO)C(=O)O)C(C)C)C(=O)O (some centres undefined) | 5.36
7 | CC(C)=CCC/C(C)=C/CC/C(C)=C/CN[C@@H](CCC(=O)N[C@H](C(=O)N[C@@H](CC(C)C)C(=O)N[C@@H](CO)C(=O)O)C(C)C)C(=O)O | 5.47
8 | CC(C)=CCC/C(C)=C/CC/C(C)=C/C(=O)N[C@@H](CCC(=O)N[C@H](C(=O)N[C@@H](CC(C)C)C(=O)N[C@@H](CO)C(=O)O)C(C)C)C(=O)O (stereo in doubt; 29 (D)) | 5.47
9 | CC(C)=CCC/C(C)=C/CC/C(C)=C/CCCCC(=O)N[C@H](C(=O)N[C@@H](CC(C)C)C(=O)N[C@@H](CO)C(=O)O)C(C)C | < 3.44
10 | CC(C)=CCC/C(C)=C/CC/C(C)=C/C(=O)N[C@@H](CCC(=O)N[C@H](C(=O)N[C@@H](CC(C)C)C(=O)N[C@@H](CO)C(=O)O)C(C)C)C(=O)O (stereo in doubt; 28 (L)) | 7.48
11 | CC(C)=CCC/C(C)=C/CC/C(C)=C/CN[C@H](CCC(=O)N[C@H](C(=O)N[C@@H](CC(C)C)C(=O)N[C@@H](CO)C(=O)O)C(C)C)C(=O)O | 4.85
12 | CC(C)=CCC/C(C)=C/CC/C(C)=C/CC(CCCCC(=O)N[C@H](C(=O)N[C@@H](CC(C)C)C(=O)N[C@@H](CO)C(=O)O)C(C)C)C(=O)O (some centres undefined) | 5.74
13 | CC(C)=CCC/C(C)=C/CC/C(C)=C/CC(CCC(=O)N[C@H](C(=O)N[C@@H](CC(C)C)C(=O)N[C@@H](CO)C(=O)O)C(C)C)C(=O)O (some centres undefined) | 6.05
14 | CC(C)=CCC/C(C)=C/CC/C(C)=C/CC(CCCC(=O)N[C@H](C(=O)N[C@@H](CC(C)C)C(=O)N[C@@H](CO)C(=O)O)C(C)C)C(=O)O (some centres undefined) | 5.92

Source: ChEMBL document CHEMBL1152035, “Rational design of potent carboxylic acid based bisubstrate inhibitors of ras farnesyl protein transferase” (Bioorg Med Chem Lett, 1994)
